This is an account of results in patent US20030096733A1, “Novel drug targets for arthritis” (Omnio AB, priority 2001, published 2003).

Structures can show the parent of a compound that is named as a salt. Residues, ends and D or L forms follow the SMILES beside them.

The target in series [1] is human uPA (Homo sapiens, UniProt P00749). Conditions: read-out: Km for human uPA; chromogenic substrate; cited from earlier work.
Series [2] concerns the target T1, plasmin (Homo sapiens, UniProt P00747).
T1 construct: After the cleavage, plasmin is an active two-chain disulfide linked molecule
Conditions: chromogenic substrate; cited from earlier work.

Series [3] deals with CIA-sensitive mice. Description: Aprotinin treatment of CIA-sensitive mice, arthritis induced by monoclonal antibodies C1 and M2139. The class given is in vivo. Conditions: 0.5 mL aprotinin w/o emulsion i.p. every 72 hours; monoclonal antibody induction. An excerpt: (§1) To test potential drug candidates, arthritis is induced in CIA-sensitive mice either by immunization with collagen type II (CIA) or, alternatively, by use of monoclonal antibodies.
Using monoclonal antibodies to induce CIA has an advantage in that it allows for better control of the induction.
(§2) The present example describes treatment of CIA-sensitive mice with aprotinin (Trasylol; Bayer). Trasylol is an inhibitor of plasmin and thereby, according to the invention, a candidate drug for treating arthritis.
(§3) Since aprotinin has a rather short half life in mice, a sustained release system for Trasylol is used. An exemplary system based on water/oil (w/o) emulsions where aprotinin is incorporated is described in detail by Bjerregaard et al. (Journal of Controlled release 2001; 71:87-98).
The mice are injected intraperitoneally with 0.5 mL aprotinin emulsion, containing 30% w/w disperse phase with 87 mg aprotinin per ml aqueous phase (corresponding to a dose of approximately 85,000 KIU (“kallikrein-inactivator units”) aprotinin, using a Hamilton syringe 21 G needle. (It is also possible to carry out controlled administration of aprotinin via an osmotic pump.) The injection is repeated every 72 hours.
CIA induction using monoclonal antibodies. […] The development of arthritis is evaluated with the clinical grading system described in Example 1. […]

The subject of series [4] is CIA-sensitive mice. As to the kind of experiment: Aprotinin treatment of CIA-sensitive mice, arthritis induced by rat collagen II. The class given is in vivo. As to conditions: 0.5 ml aprotinin w/o emulsion i.p. every 72 hr; collagen II induction.
Description: as §1, §2, §3
CIA induction using Collagen-II. Collagen-induced arthritis (CIA) is induced in mice with Rat collagen II, which is prepared from the Swarm chondrosarcoma after pepsin digestion, as previously described (Andersson and Holmdahl, Eur J Immunol 1990;20:1061-1066). Collagen II is dissolved at a concentration of 2 mg/ml in 0.1 M acetic acid and stored at 4° C. Arthritis is induced by intrademal injection at the basis of the tail with […] of […] rat collagen II emulsified with an equal volume of complete Freund's adjuvant (CFA, with Mycobacterium butyricum; Difco, Detroit, Mich.). […]

The conditions of series [5]: cited from earlier work.
Series [6] addresses T1, plasmin. As to conditions: cited from earlier work.
For series [7], the system named is plasminogen deficient mice. Description: Restoration of plasminogen in plasminogen deficient mice, arthritis induced by collagen II monoclonal antibody cocktail. It counts as in vivo. The method, then: Induction of arthritis using monoclonal antibodies directed against collagen type II. A battery of monoclonal antibodies against collagen type II were produced by standard procedures. Induction of arthritis was performed by intravenous injection of a cocktail of two antibodies denoted C1 and M2139 at day 0. Five days later (day 5), lipopolysacchride was injected intraperitoneally to enhance the immune response. The development of arthritis was evaluated with a previously described clinical grading system.
Clinical grading evaluation of arthritis. The development of arthritis was tracked using a scoring system which defines one inflamed toe or knuckle as 1 point and one inflamed wrist or ankle as […], resulting in a score of 0-15 points for each paw and 0-60 points per mouse. Deformed or swollen without redness is not included in this system.
Induction of arthritis in plasminogen deficient mice by restoration of plasminogen. 100 μl of human plasminogen, at a concentration of 10 mg/ml, was injected intravenously into the plasminogen deficient mice every 24 hours in order to restore the serum plasminogen level. 12 hours after the first injection of plasminogen, three groups of mice, plg-wildtype, plg-heterozygous, plg-deficient were again injected with plasminogen before arthritis was induced using the Collagen II monoclonal antibody cocktails as described above. The development of arthritis was followed by the clinical scoring system.

For the molecule “L-pyroglutamyl-glycyl-L-arginine-p-nitroaniline hydrochloride [S-2444]”, the Michaelis-Menten constant (Km) in series [1] is 90 µM.

As to `CC(C)C[C@H](NC(=O)[C@H](N)C(C)C)C(=O)N[C@@H](CCCCN)C(=O)Nc1ccc([N+](=O)[O-])cc1` [S-2251, H-D-Valyl-L-leucyl-L-lysine-p-nitroaniline dihydrochloride] (HELM PEPTIDE1{[dV].L.K.[O=[N+]([O-])c1ccc(N[*:1])cc1]}$$$$V2.0), the Km in series [2] was 300 µM.

As for aprotinin, in series [3], the “incidence of the CIA vs control mice” value is “lower” and the “severity of the CIA vs control mice” value is listed as “lower”. Further, in series [4], the “incidence of the CIA vs control mice” value is “lower” and the “severity of the CIA vs control mice” value was “lower”. For the same molecule, the “half life in mice” value in series [5] is “rather short”.

B1: α2AP: single-chain glycoprotein, physiological inhibitor of plasmin (protein, UniProt P08697 40-491, looked up)
Alpha-2-antiplasmin: NQEQVSPLTLLKLGNQEPGGQTALKSPPGVCSRDPTPEQTHRLARAMMAFTADLFSLVAQTSTCPNLILSPLSVALALSHLALGAQNHTLQRLQQVLHAGSGPCLPHLLSRLCQDLGPGAFRLAARMYLQKGFPIKEDFLEQSEQLFGAKPVSLTGKQEDDLANINQWVKEATEGKIQEFLSGLPEDTVLLLLNAIHFQGFWRNKFDPSLTQRDSFHLDEQFTVPVEMMQARTYPLRWFLLEQPEIQVAHFPFKNNMSFVVLVPTHFEWNVSQVLANLSWDTLHPPLVWERPTKVRLPKLYLKHQMDLVATLSQLGLQELFQAPDLRGISEQSLVVSGVQHQSTLELSEVGVEAAAATSIAMSRMSLSSFSVNRPFLFFIFEDTTGLPLFVGSVRNPNPSAPRELKEQQDSPGNKDFLQSLKGFPRGDKLFGPDLKLVPPMEEDYPQFGSPK
Turning to B1, the “second-order rate constant of inhibition of plasmin” value in series [6] is given as “above 10^7 M^−1s^−1”.

B2: Human plasminogen: human plasminogen injected intravenously into plasminogen deficient mice to restore the serum plasminogen level (protein)
chain: MEHKEVVLLLLLFLKSGQGEPLDDYVNTQGASLFSVTKKQLGAGSIEECAAKCEEDEEFTCRAFQYHSKEQQCVIMAENRKSSIIIRMRDVVLFEKKVYLSECKTGNGKNYRGTMSKTKNGITCQKWSSTSPHRPRFSPATHPSEGLEENYCRNPDNDPQGPWCYTTDPEKRYDYCDILECEEECMHCSGENYDGKISKTMSGLECQAWDSQSPHAHGYIPSKFPNKNLKKNYCRNPDRELRPWCFTTDPNKRWELCDIPRCTTPPPSSGPTYQCLKGTGENYRGNVAVTVSGHTCQHWSAQTPHTHNRTPENFPCKNLDENYCRNPDGKRAPWCHTTNSQVRWEYCKIPSCDSSPVSTEQLAPTAPPELTPVVQDCYHGDGQSYRGTSSTTTTGKKCQSWSSMTPHRHQKTPENYPNAGLTMNYCRNPDADKGPWCFTTDPSVRWEYCNLKKCSGTEASVVAPPPVVLLPDVETPSEEDCMFGNGKGYRGKRATTVTGTPCQDWAAQEPHRHSIFTPETNPRAGLEKNYCRNPDGDVGGPWCYTTNPRKLYDYCDVPQCAAPSFDCGKPQVEPKKCPGRVVGGCVAHPHSWPWQVSLRTRFGMHFCGGTLISPEWVLTAAHCLEKSPRPSSYKVILGAHQEVNLEPHVQEIEVSRLFLEPTRKDIALLKLSSPAVITDKVIPACLPSPNYVVADRTECFITGWGETQGTFGAGLLKEAQLPVIENKVCNRYEFLNGRVQSTELCAGHLAGGTDSCQGDSGGPLVCFEKDKYILQGVTSWGLGCARPNKPGVYVRVSRFVTWIEGVMRNN
For the molecule B2, in series [7] (five days after the cocktail injection, human plasminogen injected 12 hours before challenge), the “plasminogen deficient mice that developed joint inflammation” value was 3 out of 4. In series [7] (plg −/− mice, human plasminogen i.v. every 24 hours, anti-collagen II monoclonal antibody cocktail, clinical score 0-60 points per mouse), this molecule gave an Arthritic score of 6.7 ± 2.9. For the same molecule, the “Incidence of RA” value in series [7] (plg −/− mice, human plasminogen i.v. every 24 hours, anti-collagen II monoclonal antibody cocktail, mice affected/total) is listed as 3/4.

As a reminder, the Km is the concentration of substrate that gives half-maximal velocity.
